Data taken from patent US20250295646A1, “METHODS OF USE OF T-TYPE CALCIUM CHANNEL MODULATORS” (Praxis Precision Medicines, Inc., priority 2022, published 2025).

What was measured:
[1] = Phase 1 SAD/MAD safety and tolerability of formulation 3; type: in vivo, human; conditions: single 60 mg without titration, 6 healthy volunteers
Method: This was a 2-part, Phase 1 double blind, placebo controlled trial to assess the safety, tolerability, pharmacokinetics, and pharmacodynamics (including the KSS, the KDT, the SQSQ and 24-hour EEG recordings), of single, ascending (Part A: 20, 40, and 60 mg) and multiple, ascending (Part B: 20 and 40 mg for 8 days) doses of the 20 mg tablet (formulation 3) in healthy participants. […] Variability in Cmax and AUC increased with increasing dose following a single oral dose of the 20 mg tablet formulation (formulation 3) (FIG. 16).
Adverse events for the doses of 20 and 40 mg were transient and occurred at a rate similar to placebo. The following TEAEs were observed, all of which were mild to moderate: […]

[2] = system: adult patients with essential tremor; experiment: Essential tremor trial Example 16 Part B open-label titration phase: TETRAS, mADL, ADL efficacy; type: in vivo, human; set-up: reduction in upper limb tremor amplitude / LS mean reduction in upper limb tremor amplitude / reduction in combined upper limb tremor amplitude: concentration or dose not given beside the values; conditions: for TETRAS ADL Score CFB LS Mean / TETRAS CULS Score CFB LS Mean / TETRAS PS Item 6: Archimedes Spiral (Left) Score CFB LS Mean / TETRAS PS Item 6: Archimedes Spiral (Right) Score CFB LS Mean / TETRAS PS Item 7: Handwriting Score CFB LS Mean / TETRAS PSTS Score CFB LS Mean / TETRAS ULS Score CFB LS Mean / TETRAS mADL (TETRAS modified total score) Score CFB LS Mean / TETRAS ADL CTA LS Mean % / TETRAS CULS CTA LS Mean % / TETRAS PS Item 6: Archimedes Spiral (Left) CTA LS Mean % / TETRAS PS Item 6: Archimedes Spiral (Right) CTA LS Mean % / TETRAS PS Item 7: Handwriting CTA LS Mean % / TETRAS PSTS CTA LS Mean % / TETRAS ULS CTA LS Mean % / TETRAS mADL CTA LS Mean %: Part B - OLT, FAS; for TETRAS ADL Score CFB LS Mean / TETRAS CULS Score CFB LS Mean / TETRAS PS Item 6: Archimedes Spiral (Left) Score CFB LS Mean / TETRAS PS Item 6: Archimedes Spiral (Right) Score CFB LS Mean / TETRAS PS Item 7: Handwriting Score CFB LS Mean / TETRAS PSTS Score CFB LS Mean / TETRAS ULS Score CFB LS Mean / TETRAS mADL (TETRAS modified total score) Score CFB LS Mean: change from pre-dose baseline; for TETRAS ADL CTA LS Mean % / TETRAS CULS CTA LS Mean % / TETRAS PS Item 6: Archimedes Spiral (Left) CTA LS Mean % / TETRAS PS Item 6: Archimedes Spiral (Right) CTA LS Mean % / TETRAS PS Item 7: Handwriting CTA LS Mean % / TETRAS PSTS CTA LS Mean % / TETRAS ULS CTA LS Mean % / TETRAS mADL CTA LS Mean %: from pre-dose baseline; for TETRAS ADL score, LS mean change from pre-dose baseline / TETRAS combined upper limb score, LS mean change from pre-dose baseline / TETRAS upper limb score, LS mean change from pre-dose baseline / mADL score, LS mean change from pre-dose baseline / reduction in combined upper limb tremor amplitude / reduction in upper limb tremor amplitude / ADL, LS mean change from pre-dose baseline / LS mean reduction in upper limb tremor amplitude / mADL, LS mean change from pre-dose baseline: Part B OLT
Method: A two part trial (Part A and Part B as described below) was conducted to study the efficacy, safety, tolerability, and pharmacokinetics of the compound of formula (I) in adult patients with essential tremor (ET).
Participants were males and females ages 18 and older with a clinical diagnosis of ET. Participants who have a history of any other medical, neurological, or psychiatric condition that may explain or cause tremor were excluded. Participants who have previously received treatment with formula (I) in any clinical trial (including Part A of the current trial for participants enrolling in Part B) were also excluded.
In Part B, an open label titration phase and a randomized, double-blind, placebo-controlled trial was conducted. […] During the withdrawal phase, patients either continued receiving formula (I) at their current dose or switched to placebo, depending on the randomization, for 14 days (Day 43 to Day 56).

[3] = Within-participant escalating dose trial Part B: safety and tolerability; type: in vivo, human; conditions: for dose levels well-tolerated with titration: titrated dosing schedule, per day
[4] = Within-participant escalating dose trial Part B (20-120 mg titration): pharmacokinetics; conditions: titrated dosing schedule
Method: Each participant completed 3 study periods: Screening, Treatment period (12 or 31 days), and Safety follow-up.
Participants were healthy males and females between the ages of 18 and 55 years old.
In Part B, a randomized controlled trial was conducted.

[5] = system: sigma band EEG power during NREM sleep; experiment: EEG/PSG: sigma band EEG power during NREM sleep; type: in vivo, human; conditions: 20 mg tablet and 40 mg tablet (FIG. 12)
hCav3.3 = target: T1, hCav3.3 (Homo sapiens, UniProt Q9P0X4); experiment: PatchXpress patch clamp, voltage dependent block (half-inactivated state); type: cell-based
T1 construct: expressed in transfected cells; host or cells: HEK-293

[6] = Day 7, subset with baseline upper limb scores ≥10
[7] = Day 21, subset with baseline upper limb scores ≥10

T1 sequence (Q9P0X4 whole entry): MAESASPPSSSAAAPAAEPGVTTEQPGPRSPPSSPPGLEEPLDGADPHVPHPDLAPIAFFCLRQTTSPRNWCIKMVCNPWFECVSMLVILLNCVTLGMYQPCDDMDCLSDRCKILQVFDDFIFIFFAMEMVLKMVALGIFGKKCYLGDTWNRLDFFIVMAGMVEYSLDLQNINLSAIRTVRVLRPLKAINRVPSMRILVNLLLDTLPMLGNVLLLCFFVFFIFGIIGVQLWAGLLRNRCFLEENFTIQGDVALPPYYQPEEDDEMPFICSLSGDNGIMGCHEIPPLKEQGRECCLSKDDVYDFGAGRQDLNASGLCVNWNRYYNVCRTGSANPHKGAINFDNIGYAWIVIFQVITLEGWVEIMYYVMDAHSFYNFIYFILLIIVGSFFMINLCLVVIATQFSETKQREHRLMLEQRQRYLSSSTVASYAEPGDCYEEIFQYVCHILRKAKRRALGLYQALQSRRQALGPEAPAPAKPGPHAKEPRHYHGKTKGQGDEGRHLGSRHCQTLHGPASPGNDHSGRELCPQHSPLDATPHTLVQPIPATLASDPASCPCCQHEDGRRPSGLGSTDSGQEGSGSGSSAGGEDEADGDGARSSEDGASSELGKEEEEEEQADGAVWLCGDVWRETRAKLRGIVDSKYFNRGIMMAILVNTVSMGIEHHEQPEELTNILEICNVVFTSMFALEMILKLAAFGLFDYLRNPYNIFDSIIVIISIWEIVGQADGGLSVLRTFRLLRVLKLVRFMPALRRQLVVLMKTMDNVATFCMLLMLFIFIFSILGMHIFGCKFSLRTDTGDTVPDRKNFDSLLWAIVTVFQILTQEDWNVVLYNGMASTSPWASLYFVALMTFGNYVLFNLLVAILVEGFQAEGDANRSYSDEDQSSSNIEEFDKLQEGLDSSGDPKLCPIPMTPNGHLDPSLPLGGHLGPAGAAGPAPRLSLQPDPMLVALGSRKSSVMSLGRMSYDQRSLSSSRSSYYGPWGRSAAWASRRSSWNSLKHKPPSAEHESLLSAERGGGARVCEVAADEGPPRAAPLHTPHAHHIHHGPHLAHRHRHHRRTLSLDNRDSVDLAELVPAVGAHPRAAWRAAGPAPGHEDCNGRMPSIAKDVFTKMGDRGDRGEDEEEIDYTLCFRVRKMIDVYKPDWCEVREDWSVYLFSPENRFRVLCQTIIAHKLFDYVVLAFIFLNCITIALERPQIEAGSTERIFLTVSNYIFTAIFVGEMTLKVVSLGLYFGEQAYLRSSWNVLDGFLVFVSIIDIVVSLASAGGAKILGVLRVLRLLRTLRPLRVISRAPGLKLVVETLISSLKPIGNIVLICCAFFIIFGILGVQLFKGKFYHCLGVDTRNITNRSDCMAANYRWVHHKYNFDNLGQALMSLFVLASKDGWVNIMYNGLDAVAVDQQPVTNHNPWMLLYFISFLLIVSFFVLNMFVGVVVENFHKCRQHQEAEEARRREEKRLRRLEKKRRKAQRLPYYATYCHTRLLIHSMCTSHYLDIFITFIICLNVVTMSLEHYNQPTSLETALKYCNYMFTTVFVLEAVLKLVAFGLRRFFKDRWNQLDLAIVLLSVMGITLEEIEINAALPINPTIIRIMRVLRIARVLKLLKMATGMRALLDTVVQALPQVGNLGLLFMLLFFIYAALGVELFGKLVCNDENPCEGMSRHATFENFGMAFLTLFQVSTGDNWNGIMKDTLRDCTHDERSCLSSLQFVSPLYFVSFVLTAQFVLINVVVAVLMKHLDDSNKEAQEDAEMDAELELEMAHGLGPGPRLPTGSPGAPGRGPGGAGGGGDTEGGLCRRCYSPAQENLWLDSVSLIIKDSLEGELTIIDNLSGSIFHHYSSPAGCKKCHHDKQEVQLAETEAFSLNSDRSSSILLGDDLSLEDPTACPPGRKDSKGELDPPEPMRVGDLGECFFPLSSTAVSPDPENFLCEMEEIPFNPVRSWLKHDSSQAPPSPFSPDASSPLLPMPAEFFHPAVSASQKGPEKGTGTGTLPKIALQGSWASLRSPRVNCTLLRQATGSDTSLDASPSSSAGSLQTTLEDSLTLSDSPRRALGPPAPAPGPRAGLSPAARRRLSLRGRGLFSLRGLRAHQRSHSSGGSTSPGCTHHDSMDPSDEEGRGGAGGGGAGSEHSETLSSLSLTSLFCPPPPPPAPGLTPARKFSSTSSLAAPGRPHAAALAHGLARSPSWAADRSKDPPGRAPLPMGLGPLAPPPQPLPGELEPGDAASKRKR

CC(C)(C)NC(=O)CN1CCC(CNC(=O)c2cc(F)cc(Cl)c2)CC1 [compound of formula (I), N-((1-(2-(tert-butylamino)-2-oxoethyl)piperidin-4-yl)methyl)-3-chloro-5-fluorobenzamide]
tolerability [1]: not tolerated
TETRAS ADL Score CFB LS Mean ([2]; Day 7): −1.986
TETRAS CULS Score CFB LS Mean ([2]; Day 7): −0.909
TETRAS PS Item 6: Archimedes Spiral (Left) Score CFB LS Mean ([2]; Day 7): 0.221
TETRAS PS Item 6: Archimedes Spiral (Right) Score CFB LS Mean ([2]; Day 7): 0.006
TETRAS PS Item 7: Handwriting Score CFB LS Mean ([2]; Day 7): −0.019
TETRAS PSTS Score CFB LS Mean ([2]; Day 7): −1.253
TETRAS ULS Score CFB LS Mean ([2]; Day 7): −0.967
TETRAS mADL (TETRAS modified total score) Score CFB LS Mean ([2]; Day 7): −2.862
TETRAS ADL CTA LS Mean % ([2]; Day 7): −7.29%
TETRAS CULS CTA LS Mean % ([2]; Day 7): −9.1%
TETRAS PS Item 6: Archimedes Spiral (Left) CTA LS Mean % ([2]; Day 7): 22.4%
TETRAS PS Item 6: Archimedes Spiral (Right) CTA LS Mean % ([2]; Day 7): 0.6%
TETRAS PS Item 7: Handwriting CTA LS Mean % ([2]; Day 7): −2.2%
TETRAS PSTS CTA LS Mean % ([2]; Day 7): −8.6%
TETRAS ULS CTA LS Mean % ([2]; Day 7): −16.9%
TETRAS mADL CTA LS Mean % ([2]; Day 7): −18.49%
TETRAS ADL Score CFB LS Mean ([2]; Day 21): −3.475
TETRAS CULS Score CFB LS Mean ([2]; Day 21): −1.320
TETRAS PS Item 6: Archimedes Spiral (Left) Score CFB LS Mean ([2]; Day 21): −0.012
TETRAS PS Item 6: Archimedes Spiral (Right) Score CFB LS Mean ([2]; Day 21): −0.240
TETRAS PS Item 7: Handwriting Score CFB LS Mean ([2]; Day 21): 0.107
TETRAS PSTS Score CFB LS Mean ([2]; Day 21): −1.449
TETRAS ULS Score CFB LS Mean ([2]; Day 21): −1.143
TETRAS mADL (TETRAS modified total score) Score CFB LS Mean ([2]; Day 21): −2.812
TETRAS ADL CTA LS Mean % ([2]; Day 21): −12.02%
TETRAS CULS CTA LS Mean % ([2]; Day 21): −12.9%
TETRAS PS Item 6: Archimedes Spiral (Left) CTA LS Mean % ([2]; Day 21): −1.3%
TETRAS PS Item 6: Archimedes Spiral (Right) CTA LS Mean % ([2]; Day 21): −24.2%
TETRAS PS Item 7: Handwriting CTA LS Mean % ([2]; Day 21): 11.5%
TETRAS PSTS CTA LS Mean % ([2]; Day 21): −9.9%
TETRAS ULS CTA LS Mean % ([2]; Day 21): −19.7%
TETRAS mADL CTA LS Mean % ([2]; Day 21): −14.31%
TETRAS ADL Score CFB LS Mean ([2]; Day 42, 6 hours post-dose): −8.207
TETRAS CULS Score CFB LS Mean ([2]; Day 42, 6 hours post-dose): −1.882
TETRAS PS Item 6: Archimedes Spiral (Left) Score CFB LS Mean ([2]; Day 42, 6 hours post-dose): −0.072
TETRAS PS Item 6: Archimedes Spiral (Right) Score CFB LS Mean ([2]; Day 42, 6 hours post-dose): −0.239
TETRAS PS Item 7: Handwriting Score CFB LS Mean ([2]; Day 42, 6 hours post-dose): −0.054
TETRAS PSTS Score CFB LS Mean ([2]; Day 42, 6 hours post-dose): −2.771
TETRAS ULS Score CFB LS Mean ([2]; Day 42, 6 hours post-dose): −2.090
TETRAS mADL (TETRAS modified total score) Score CFB LS Mean ([2]; Day 42, 6 hours post-dose): −6.669
TETRAS ADL CTA LS Mean % ([2]; Day 42, 6 hours post-dose): −29.59%
TETRAS CULS CTA LS Mean % ([2]; Day 42, 6 hours post-dose): −17.9%
TETRAS PS Item 6: Archimedes Spiral (Left) CTA LS Mean % ([2]; Day 42, 6 hours post-dose): −8.0%
TETRAS PS Item 6: Archimedes Spiral (Right) CTA LS Mean % ([2]; Day 42, 6 hours post-dose): −24.1%
TETRAS PS Item 7: Handwriting CTA LS Mean % ([2]; Day 42, 6 hours post-dose): −6.0%
TETRAS PSTS CTA LS Mean % ([2]; Day 42, 6 hours post-dose): −18.1%
TETRAS ULS CTA LS Mean % ([2]; Day 42, 6 hours post-dose): −33.0%
TETRAS mADL CTA LS Mean % ([2]; Day 42, 6 hours post-dose): −42.04%
TETRAS ADL score, LS mean change from pre-dose baseline ([2]; Day 7): −1.986
TETRAS combined upper limb score, LS mean change from pre-dose baseline ([2]; Day 7): −0.909
TETRAS upper limb score, LS mean change from pre-dose baseline ([2]; Day 7): −0.967
mADL score, LS mean change from pre-dose baseline ([2]; Day 7): −2.862
reduction in combined upper limb tremor amplitude ([2]; Day 7): 9.1%
reduction in upper limb tremor amplitude ([2]; Day 7): 16.9%
ADL, LS mean change from pre-dose baseline [2, 6]: −2.222
LS mean reduction in upper limb tremor amplitude [2, 6]: 22.9%
mADL, LS mean change from pre-dose baseline [2, 6]: −3.011
TETRAS ADL score, LS mean change from pre-dose baseline ([2]; Day 21): −3.475
TETRAS combined upper limb score, LS mean change from pre-dose baseline ([2]; Day 21): −1.320
TETRAS upper limb score, LS mean change from pre-dose baseline ([2]; Day 21): −1.143
mADL score, LS mean change from pre-dose baseline ([2]; Day 21): −2.812
reduction in combined upper limb tremor amplitude ([2]; Day 21): 12.9%
reduction in upper limb tremor amplitude ([2]; Day 21): 19.7%
ADL, LS mean change from pre-dose baseline [2, 7]: −4.444
LS mean reduction in upper limb tremor amplitude [2, 7]: 26.7%
mADL, LS mean change from pre-dose baseline [2, 7]: −3.773
TETRAS ADL score, LS mean change from pre-dose baseline ([2]; Day 42): −8.207
TETRAS combined upper limb score, LS mean change from pre-dose baseline ([2]; Day 42): −1.882
TETRAS upper limb score, LS mean change from pre-dose baseline ([2]; Day 42): −2.090
mADL score, LS mean change from pre-dose baseline ([2]; Day 42): −6.669
reduction in combined upper limb tremor amplitude ([2]; Day 42): 17.9%
reduction in upper limb tremor amplitude ([2]; Day 42): 33.0%
maximum tolerated dosage in the titration scheme ([3]; highest dose tested 120 mg): no maximum tolerated dosage was identified
Cardiac Disorders ([3]; human, in vivo, 31 days): 4 n (%)
Chest discomfort ([3]; human, in vivo, 31 days): 2 n (%)
Dizziness ([3]; human, in vivo, 31 days): 3 n (%)
General Disorders and Administration Site Conditions ([3]; human, in vivo, 31 days): 6 n (%)
Headache ([3]; human, in vivo, 31 days): 2 n (%)
Intoxicated sensation ([3]; human, in vivo, 31 days): 2 n (%)
Medical device site dermatitis ([3]; human, in vivo, 31 days): 3 n (%)
Nervous System Disorders ([3]; human, in vivo, 31 days): 5 n (%)
Palpitations ([3]; human, in vivo, 31 days): 2 n (%)
Participants with at least one TEAE ([3]; human, in vivo, 31 days): 12 n (%)
treatment related ECG or EEG abnormalities ([3]; in vivo): no treatment related ECG or EEG abnormalities
dose levels well-tolerated with titration [3]: ≤ 120 mg
increase of Cmax and AUC24 above values of a lower dosage not tolerated without titration [4]: 2-3 fold

CC(C)(C)NC(=O)CN1CCC(CNC(=O)c2cc(F)cc(Cl)c2)CC1.Cl [compound of formula (II), N-((1-(2-(tert-butylamino)-2-oxoethyl)piperidin-4-yl)methyl)-3-chloro-5-fluorobenzamide hydrochloride]
dose levels well-tolerated with titration [3]: up to 120 mg
NREM sigma band compared to placebo control [5]: decrease
tonic block/voltage dependent block (TB/VDB) ratio (hCav3.3): 4.0
